Several values for one entry are separate records, joined by “and”; a condition that tells them apart may be missing. Identical values can stand only once. Marks after values point to notes of the source that are not given here.
Legend:
[1] = test system: imiquimod-induced C3H/HeJ mice alopecia areata model; assay: Imiquimod-induced mouse alopecia areata model: hair growth; assay type: in vivo; settings: Baricitinib 10 mg/kg oral by gavage twice a day for one month, Day 30; for Newly grown hair score: score 0-5
Experimental: • 1) Animals: female C3H/He mice, SPF, aged 6-8 weeks at grouping. The animals were provided by Beijing Viewsolid Biotech. • 2) Reagents, positive drugs and test drugs
After one week of adaptive feeding of C3H/HeJ mice: modeling was performed by applying imiquimod ointment to the neck, 3 times a week. The mice were carefully taken out, and about 0.05 g of 5% imiquimod ointment was dipped with a clean medical cotton swab and then applied evenly to the skin on the neck over a range of about 1.5 cm×1.5 cm. Before each application, the local part was cleaned by normal saline to remove the residual drug in the previous time. The continuous administration time was no longer than 10 weeks. When alopecia areata with an area size > 1 cm×1 cm was formed at the administration part, the administration was stopped, proving that a preparation model was successful. The mice in the normal control group were modeled by using blank ointment (vaseline ointment).
During the period from the first administration to the end of the last administration after the alopecia areata modeling was successful, the alopecia areata part of each mouse was photographed once every 3 days, the photographing distance, angle and magnification times were fixed, and the hair growth of the alopecic areas on the backs of the mice was recorded.
Visual quantification of the alopecia area images was performed using ImageJ software. The hair growth area (a) and hair loss area (b) were calculated. The hair growth rate was counted and analyzed: hair growth rate (%) = (a/b)* 100%. The newly grown hairs at the alopecia areata part of the mice in each group were scored based on the hair growth rate. Table 14 Scoring criteria of newly grown hairs

[2] = test system: imiquimod-induced C3H/HeJ mice alopecia areata model; assay: Imiquimod-induced mouse alopecia areata model: number of hair follicles in skin; assay type: in vivo; settings: Baricitinib 10 mg/kg oral by gavage twice a day for one month, skin at alopecia areata part
Experimental: After the animals were anesthetized and euthanized, the complete skin tissue of the alopecic area was cut along the junction between the normal skin of the back of the mouse and the alopecic area and perpendicular to the skin surface. A part of the tissue was taken, conventionally dehydrated and embedded. The remaining tissue was stored in a refrigerator at -80°C for later use.
The embedded skin tissue was cut into 3 µm-thick sections, and then the sections were dewaxed in xylene, hydrated by gradient ethanol, H&E stained, dehydrated, cleared and mounted. The hair follicles in skin tissue sections from each group were microscopically observed and photographed. The mean number of the hair follicles was calculated using Image J software.

[3] = test system: monobenzone-induced mouse vitiligo model; assay: Monobenzone-induced mouse vitiligo model: skin pathological analysis of melanin-containing hair follicles; assay type: in vivo, C57BL/6 mice; settings: 1.5% ruxolitinib ointment
Experimental: The mice were euthanized within 2-4 hours after the last administration, and approximately 1 cm^2 of the skin in the center of the depilated part of the mice was taken and fixed with 4% paraformaldehyde. The animal skin tissues were fixed with 4% paraformaldehyde, dehydrated, embedded with paraffin, sectioned and then subjected to HE staining. The stained sections were photographed by white light panoramic scanning, histopathological changes of the skin tissues and inflammatory cell infiltration were observed, and the number of melanin-containing hair follicles and/or the proportion of the melanin-containing hair follicles in the skin were quantitatively analyzed. The panoramic scanning files were opened by using CaseViewer software, a picture view with the length of about 3.8 mm was randomly selected, and the pictures were saved. The number of all the hair follicles and the number of the melanin-containing hair follicles in the picture were counted respectively by using ipwin32 software. The proportion of the melanin-containing hair follicles was calculated according to the following formula: Proportion of melanin-containing hair follicles = number of melanin-containing follicles/number of all follicles

[4] = test system: monobenzone-induced mouse vitiligo model; assay: Monobenzone-induced mouse vitiligo model: hair depigmentation area scoring; assay type: in vivo, C57BL/6 mice; set-up: Hair depigmentation area scoring: scale not given here
Experimental: • 1) Animals: C57BL/6 mice, specific pathogen-free (SPF), with equal numbers of females and males. The mice were 6-8 weeks old at grouping, with 10 mice per group. The animals were provided by Charles River Laboratories. • 2) Reagents, positive drugs and test drugs
Monobenzone induction method: after 1 week of adaptive feeding of all the animals, modeling was performed and all black hairs on the back of the mice were removed by a shaver. 10 animals were randomly selected as a normal control group and applied with 50 mg of vaseline once a day; and the remaining 80 animals were used for modeling and applied with 50 mg of 40% monobenzone depigmentation ointment once a day. The applying area of the normal control group and the model group was 2 cm*3 cm of the fixed part of the back, and the modeling was continuously performed for 103 days. In order to prevent the phenomenon that the animals lick the drugs, after the animals were applied with a modeling agent, they needed to be separately placed in an independent cage without padding for a period of time to naturally dry the modeling agent, and then they were placed in a rearing cage for normal rearing. During the modeling process, new hairs grown in the alopecic areas of the backs of the mice were shaved by the shaver and then applied with the drug.
The 40% monobenzone depigmentation ointment was applied every day. After modeling for 53 days, according to a depigmentation area score (see scoring criteria of Table 9), 70 animals successfully modeled in modeling group (score ≥ 2) were randomly divided into 7 groups with 10 mice per group. The mean depigmentation area score of the animals in each group was basically consistent before the administration, and the day of grouping was defined as day 0 of the administration treatment period. Table 8 Grouping and administration regimen
During the whole experiment process, the mice in normal control group (G1) were applied with 50 mg of vaseline once a day; and the mice in each model group (G2-G8) were applied with 50 mg of 40% monobenzone ointment once a day. After modeling for 53 days, the mice were grouped and subjected to drug treatment after grouping consecutively for 50 days. The modeling operation was maintained during the drug intervention period. The mice were applied with the drug twice a day for treatment at an interval of 6 hours or more. […]

[5] = 30 mg topical twice a day for 50 days

Compound: CCS(=O)(=O)N1CC(CC#N)(n2cc(-c3ncnc4[nH]ccc34)cn2)C1 [Baricitinib, reference compound]
- Hair growth rate (%) ([1]; listed as Positive control): 69.58 ± 3.23 %
- Hair growth rate (%) ([1]; listed as positive drug): 69.58 ± 3.23%
- Newly grown hair score ([1]; listed as Positive control): 4.2 ± 0.2
- Newly grown hair score ([1]; listed as positive drug): 4.2 ± 0.2
- Mean number of hair follicles ([2]; listed as Positive control): 40 ± 7.36
- Mean number of hair follicles ([2]; listed as positive drug): 40 ± 7.36

Compound: N#CC[C@H](C1CCCC1)n1cc(-c2ncnc3[nH]ccc23)cn1 [ruxolitinib, reference compound]
- number of the melanin-containing hair follicles, times that of the model control group [3]: about 6 times
- Number of melanin-containing hair follicles [3, 5]: 41.7±16.7 and 41.7
- Proportion of melanin-containing hair follicles (%) [3, 5]: 29.8 ± 9.9% and 29.8%
- Hair depigmentation area scoring ([4]; Day 0 (before administration), 1.5% ruxolitinib ointment group): 3.90
- Hair depigmentation area scoring ([4]; Day 10, 1.5% ruxolitinib ointment, 30 mg topical twice a day): 3.80 **
- Hair depigmentation area scoring ([4]; Day 20, 1.5% ruxolitinib ointment, 30 mg topical twice a day): 3.70 **
- Hair depigmentation area scoring ([4]; Day 30, 1.5% ruxolitinib ointment, 30 mg topical twice a day): 3.40 **
- Hair depigmentation area scoring ([4]; Day 35, 1.5% ruxolitinib ointment, 30 mg topical twice a day): 2.90 **
- Hair depigmentation area scoring ([4]; Day 38, 1.5% ruxolitinib ointment, 30 mg topical twice a day): 2.60 **
- Hair depigmentation area scoring ([4]; Day 41, 1.5% ruxolitinib ointment, 30 mg topical twice a day): 2.40 **
- Hair depigmentation area scoring ([4]; Day 44, 1.5% ruxolitinib ointment, 30 mg topical twice a day): 2.30 **
- Hair depigmentation area scoring ([4]; Day 47, 1.5% ruxolitinib ointment, 30 mg topical twice a day): 2.20 **
- Hair depigmentation area scoring ([4]; Day 50, 1.5% ruxolitinib ointment, 30 mg topical twice a day): 2.20 **
- mean value of the reduction rate of the depigmentation area score ([4]; day 50, 1.5% ruxolitinib ointment, 30 mg (5 mg/cm^2) topical): 56.9%

Compound: C=CC[C@@H]1/C=C(\C)C[C@H](C)C[C@H](OC)[C@H]2O[C@@](O)(C(=O)C(=O)N3CCCC[C@H]3C(=O)O[C@H](/C(C)=C/[C@@H]3CC[C@@H](O)[C@H](OC)C3)[C@H](C)[C@@H](O)CC1=O)[C@H](C)C[C@@H]2OC [tacrolimus, reference compound]
- Hair depigmentation area scoring ([4]; Day 0 (before administration), 0.03% tacrolimus ointment group): 3.60
- Hair depigmentation area scoring ([4]; Day 10, 0.03% tacrolimus ointment, 30 mg topical twice a day): 3.50
- Hair depigmentation area scoring ([4]; Day 20, 0.03% tacrolimus ointment, 30 mg topical twice a day): 3.40
- Hair depigmentation area scoring ([4]; Day 30, 0.03% tacrolimus ointment, 30 mg topical twice a day): 3.40
- Hair depigmentation area scoring ([4]; Day 35, 0.03% tacrolimus ointment, 30 mg topical twice a day): 2.60
- Hair depigmentation area scoring ([4]; Day 38, 0.03% tacrolimus ointment, 30 mg topical twice a day): 2.50
- Hair depigmentation area scoring ([4]; Day 41, 0.03% tacrolimus ointment, 30 mg topical twice a day): 2.30
- Hair depigmentation area scoring ([4]; Day 44, 0.03% tacrolimus ointment, 30 mg topical twice a day): 2.20
- Hair depigmentation area scoring ([4]; Day 47, 0.03% tacrolimus ointment, 30 mg topical twice a day): 2.20
- Hair depigmentation area scoring ([4]; Day 50, 0.03% tacrolimus ointment, 30 mg topical twice a day): 2.20
- reduction rate of the depigmentation area score ([4]; day 50, 0.03% tacrolimus ointment, compared with the model control group): 56.9%

Source: patent EP4778522A1, “USE OF PYRROLOPYRIMIDINE COMPOUND AND COMPOSITION THEREOF” (Guangzhou Joyo Pharmatech Co., Ltd., priority 2023, dated 2025)
